# Results as given in ChEMBL document CHEMBL3886367, “Substituted pyridine compound” (2015).
# Target: T1, Cholesteryl ester transfer protein (Homo sapiens, UniProt P11597)
# T1 sequence (P11597 whole entry): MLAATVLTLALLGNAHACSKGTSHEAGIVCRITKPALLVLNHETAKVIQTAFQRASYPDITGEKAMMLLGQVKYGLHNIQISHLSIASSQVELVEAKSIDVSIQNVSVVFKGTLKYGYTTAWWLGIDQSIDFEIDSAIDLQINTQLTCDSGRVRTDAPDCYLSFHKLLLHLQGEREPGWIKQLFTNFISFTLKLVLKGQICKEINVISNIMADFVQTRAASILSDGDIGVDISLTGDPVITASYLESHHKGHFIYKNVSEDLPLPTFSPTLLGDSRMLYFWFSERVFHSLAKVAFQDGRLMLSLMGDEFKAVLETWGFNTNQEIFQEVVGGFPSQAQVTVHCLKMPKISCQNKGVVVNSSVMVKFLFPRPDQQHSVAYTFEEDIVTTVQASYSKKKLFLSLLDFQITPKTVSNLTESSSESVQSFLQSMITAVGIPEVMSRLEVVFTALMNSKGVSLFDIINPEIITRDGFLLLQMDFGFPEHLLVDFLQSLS
# Assay: CETP Inhibition Assay: A recombinant human CETP protein (manufactured by Roar Biomedical Inc.; 4.5 ng), the acceptor lipoprotein described in (2) above (32.5 ug) and 5,5'-dithio-bis-(2-nitrobenzoic acid) (7 mM, 15 ul) were taken in a 96 well plate and the total amount of the mixture was adjusted to 48.5 ul with the PBS solution. The test compound [DMSO solution (concentration: 0.15, 0.5, 1.5, 5, 15, 50, 150 and 500 uM; 1.5 ul] was added to each well and the mixture was incubated in a thermostatic bath at 37° C. for 60 minutes. The reconstituted HDL (50 ul) described in (1) above was added to each well and the mixture was reacted in a thermostatic bath at 37° C. for 60 minutes. The 96 well plate was moved onto ice and a precipitation reagent [a mixed solution of magnesium chloride (60 mM) and 0.1% dextran sulfate [1/1 (v/v)]; 15 ul] was added to each well, and then the mixture was allowed to stand on ice for 15 minutes.
row,IC50 [nM],Structure (SMILES)
1,37,CC1(C)Cc2nc(C3CCN(c4ncc(OCCO)cn4)CC3)c([C@@H](F)c3ccc(C(F)(F)F)cc3)c(C3CCC(F)(F)CC3)c2[C@@H](O)C1
2,49,CC1(C)Cc2nc(C3CCN(c4ncc(N5CCS(=O)(=O)CC5)cn4)CC3)c([C@@H](F)c3ccc(C(F)(F)F)cc3)c(C3CCC(F)(F)CC3)c2[C@@H](O)C1
3,92,"CCOc1cnc(N2CCC(c3nc4c(c(C5CCC(F)(F)CC5)c3[C@@H](F)c3ccc(C(F)(F)F)cc3)[C@@H](O)CC(C)(C)C4)CC2)nc1 (single isomer, unassigned)"
4,150,"CC1(C)Cc2nc(C3CCN(c4ncc(Br)cn4)CC3)c([C@@H](F)c3ccc(C(F)(F)F)cc3)c(C3CCC(F)(F)CC3)c2[C@@H](O)C1 (single isomer, unassigned)"
